Measured values as given in patent US20260062443A1 (ALEXION PHARMACEUTICALS, INC., priority 2022, published 2026).
pIC50: −log10 of the molar value.

Target: T1, Human complement C1s enzyme (Homo sapiens, UniProt P09871)
T1 sequence (P09871 438-688 limits assumed): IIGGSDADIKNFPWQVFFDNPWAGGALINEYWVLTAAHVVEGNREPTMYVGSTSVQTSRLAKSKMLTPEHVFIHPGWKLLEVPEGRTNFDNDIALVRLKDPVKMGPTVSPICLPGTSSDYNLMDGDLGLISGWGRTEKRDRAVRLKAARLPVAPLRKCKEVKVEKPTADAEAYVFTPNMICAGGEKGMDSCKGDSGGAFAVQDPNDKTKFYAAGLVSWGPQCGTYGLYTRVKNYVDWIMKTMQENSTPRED
T1 sequence (P09871 16-437 partner limits assumed): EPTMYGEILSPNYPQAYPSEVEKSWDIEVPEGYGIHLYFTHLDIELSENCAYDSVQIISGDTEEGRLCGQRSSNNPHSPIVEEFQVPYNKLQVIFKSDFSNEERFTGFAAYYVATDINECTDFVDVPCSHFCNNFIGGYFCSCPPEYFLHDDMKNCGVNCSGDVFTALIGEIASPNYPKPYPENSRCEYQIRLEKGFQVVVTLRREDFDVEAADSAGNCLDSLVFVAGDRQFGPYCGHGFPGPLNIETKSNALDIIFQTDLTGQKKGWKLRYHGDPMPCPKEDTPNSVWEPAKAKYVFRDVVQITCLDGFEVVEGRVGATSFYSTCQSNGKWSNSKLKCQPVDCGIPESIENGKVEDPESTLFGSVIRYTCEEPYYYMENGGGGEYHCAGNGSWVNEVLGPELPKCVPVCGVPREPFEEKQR
Assay: Human C1s enzyme assay
Type: biochemical
Conditions: human complement C1s enzyme 1.16 nM, substrate Z-L-Lys-SBzl 100 μM, 5 min preincubation; read-out: IC50 (Stars), C1s Inhibiting Activity
Method: Other standard complement assays are also available.
Human complement C1s enzyme (purified from human serum, Complement Technology, Inc.) at 1.16 nM final concentration was incubated with test compound at various concentrations for 5 min at room temperature in 50 mM Tris, 1 M NaCl, pH 7.5. A synthetic substrate Z-L-Lys-SBzl and DTNB (Ellman's reagent) were added to final concentrations of 100 μM each. Absorbance at 405 nm (A405) was recorded at 30 second intervals for 30 min using a microplate spectrophotometer. IC50 values were calculated by nonlinear regression of complement C1 s reaction rates as a function of test compound concentration.
ND indicates a compound for which the IC50 value is not determined.

Structure (SMILES)	pIC50
C[C@H]1C[C@@H](C(=O)N[C@H](C)c2cc3cnccc3[nH]2)N(C(=O)CNC(=O)c2ccc3c(c2)Oc2ccccc2S3)C1 [Compound 165, (2S,4S)-N-((R)-1-(1H-pyrrolo[3,2-c]pyridin-2-yl)ethyl)-4-methyl-1-((phenoxathiine-3-carbonyl)glycyl)pyrrolidine-2-carboxamide]	> 7.00
CS(=O)(=O)[C@@H]1C[C@@H](C(=O)NCc2cc3cnccc3[nH]2)N(C(=O)CNC(=O)c2ccc3c(c2)-c2ccccc2C3(F)F)C1 [Compound 7, (2S,4R)-N-((1H-pyrrolo[3,2-c]pyridin-2-yl)methyl)-1-((9,9-difluoro-9H-fluorene-3-carbonyl)glycyl)-4-(methylsulfonyl)pyrrolidine-2-carboxamide]	> 7.00
CCc1ccc(Oc2cc(F)cc(C(=O)NCC(=O)N3C[C@H](OC(F)F)C[C@H]3C(=O)NCc3cc4cnccc4[nH]3)c2)cc1 [Compound 370, (2S,4R)-N-((1H-pyrrolo[3,2-c]pyridin-2-yl)methyl)-4-(difluoromethoxy)-1-((3-(4-ethylphenoxy)-5-fluorobenzoyl)glycyl)pyrrolidine-2-carboxamide]	> 7.00
C[C@@]12C[C@@H]1N(C(=O)CN1Cc3cc(-c4ccc(F)cc4F)ccc3C1=O)[C@H](C(=O)NCc1cc3cnccc3[nH]1)C2 [Compound 129, (1S,3S,5S)-N-((1H-pyrrolo[3,2-c]pyridin-2-yl)methyl)-2-(2-(5-(2,4-difluorophenyl)-1-oxoisoindolin-2-yl)acetyl)-5-methyl-2-azabicyclo[3.1.0]hexane-3-carboxamide]	> 7.00
O=C(NCC(=O)N1C[C@H](OC(F)F)C[C@H]1C(=O)NCc1ccc2cc[nH]c2c1)c1ccc2c(c1)Oc1ccccc1S2 [Compound 196, (2S,4R)-N-((1H-indol-6-yl)methyl)-4-(difluoromethoxy)-1-((phenoxathiine-3-carbonyl)glycyl)pyrrolidine-2-carboxamide]	< 6.00
O=C(NCC(=O)N1CC2(C[C@H]1C(=O)NCc1ccn[nH]1)OCCO2)c1ccc(Oc2ccccc2)cc1 [Compound 12, (S)-N-((1H-pyrazol-5-yl)methyl)-7-((4-phenoxybenzoyl)glycyl)-1,4-dioxa-7-azaspiro[4.4]nonane-8-carboxamide]	< 6.00
O=C(NCC(=O)N1CC2(C[C@H]1C(=O)NCc1cc3cnccc3[nH]1)OCCO2)c1ccc(-c2ccc(F)cc2F)cc1 [Compound 117, (S)-N-((1H-pyrrolo[3,2-c]pyridin-2-yl)methyl)-7-((2′,4′-difluoro-[1,1′-biphenyl]-4-carbonyl)glycyl)-1,4-dioxa-7-azaspiro[4.4]nonane-8-carboxamide]	6.00 to 7.00
O=C(NCC(=O)N1CC2(C[C@H]1C(=O)NCc1cc3cnccc3[nH]1)OCCO2)c1ccc(-c2ccccc2)cn1 [Compound 107, (S)-N-((1H-pyrrolo[3,2-c]pyridin-2-yl)methyl)-7-((5-phenylpicolinoyl)glycyl)-1,4-dioxa-7-azaspiro[4.4]nonane-8-carboxamide]	> 7.00
Cc1cc2[nH]c(CNC(=O)[C@@H]3C[C@]4(C)C[C@@H]4N3C(=O)CNC(=O)c3ccc4c(c3)Oc3ccccc3S4)cc2cn1 [Compound 268, (1S,3S,5S)-5-methyl-N-((6-methyl-1H-pyrrolo[3,2-c]pyridin-2-yl)methyl)-2-((phenoxathiine-3-carbonyl)glycyl)-2-azabicyclo[3.1.0]hexane-3-carboxamide]	< 6.00
O=C(NCC(=O)N1C[C@H](OC(F)F)C[C@H]1C(=O)NCc1cc2cnccn2c1)c1cccc(Oc2ccccc2)c1 [Compound 270, (2S,4R)-4-(difluoromethoxy)-1-((3-phenoxybenzoyl)glycyl)-N-(pyrrolo[1,2-a]pyrazin-7-ylmethyl)pyrrolidine-2-carboxamide]	> 7.00
CC1CCN(C(=O)CNC(=O)c2ccc3c(c2)Oc2ccccc2S3)[C@@H]1C(=O)NCc1cc2cnccc2[nH]1 (stereo partly drawn) [Compound 243, (2S)-N-((1H-pyrrolo[3,2-c]pyridin-2-yl)methyl)-3-methyl-1-((phenoxathiine-3-carbonyl)glycyl)pyrrolidine-2-carboxamide]	< 6.00
C[C@@H](NC(=O)[C@@H]1C[C@@H](S(C)(=O)=O)CN1C(=O)CNC(=O)c1ccc(-c2ccc(F)cc2F)cc1)c1cc2cnccc2[nH]1 [Compound 85, (2S,4R)-N-((R)-1-(1H-pyrrolo[3,2-c]pyridin-2-yl)ethyl)-1-((2′,4′-difluoro-[1,1′-biphenyl]-4-carbonyl)glycyl)-4-(methylsulfonyl)pyrrolidine-2-carboxamide]	< 6.00
Cc1ccc(-c2ccc3c(c2)CN(CC(=O)N2C[C@H](OC(F)F)C[C@H]2C(=O)N[C@H](C)c2cc4cnccc4[nH]2)C3=O)c(C)c1 [Compound 106, (2S,4R)-N-((R)-1-(1H-pyrrolo[3,2-c]pyridin-2-yl)ethyl)-4-(difluoromethoxy)-1-(2-(5-(2,4-dimethylphenyl)-1-oxoisoindolin-2-yl)acetyl)pyrrolidine-2-carboxamide]	> 7.00
O=C(NCC(=O)N1C[C@H](OC(F)F)C[C@H]1C(=O)NCc1cc2cnccc2[nH]1)c1ccc2c(c1)OCCS2 [Compound 356, (2S,4R)-N-((1H-pyrrolo[3,2-c]pyridin-2-yl)methyl)-4-(difluoromethoxy)-1-((2,3-dihydrobenzo[b][1,4]oxathiine-7-carbonyl)glycyl)pyrrolidine-2-carboxamide]	> 7.00
Cc1ccc(Cc2cccc(C(=O)NCC(=O)N3C[C@H](OC(F)F)C[C@H]3C(=O)NCc3cc4cnccc4[nH]3)c2)c(F)c1 [Compound 305, (2S,4R)-N-((1H-pyrrolo[3,2-c]pyridin-2-yl)methyl)-4-(difluoromethoxy)-1-((3-(2-fluoro-4-methylbenzyl)benzoyl)glycyl)pyrrolidine-2-carboxamide]	> 7.00
O=C(NCC(=O)N1C[C@H](OC(F)F)C[C@H]1C(=O)NCc1cc2cnccc2[nH]1)c1cccc(Oc2ccc(C3CC3)cc2)c1 [Compound 294, (2S,4R)-N-((1H-pyrrolo[3,2-c]pyridin-2-yl)methyl)-1-((3-(4-cyclopropylphenoxy)benzoyl)glycyl)-4-(difluoromethoxy)pyrrolidine-2-carboxamide]	> 7.00
C[C@@H](NC(=O)[C@@H]1CC2(CN1C(=O)CNC(=O)c1ccc(-c3ccccc3)cn1)OCCO2)c1cc2cnccc2[nH]1 [Compound 114, (S)-N-((R)-1-(1H-pyrrolo[3,2-c]pyridin-2-yl)ethyl)-7-((5-phenylpicolinoyl)glycyl)-1,4-dioxa-7-azaspiro[4.4]nonane-8-carboxamide]	6.00 to 7.00
O=C(NCC(=O)N1C[C@H](OC(F)F)C[C@H]1C(=O)NCc1ccc2[nH]ncc2c1)c1ccc2c(c1)Oc1ccccc1S2 [Compound 192, (2S,4R)-N-((1H-indazol-5-yl)methyl)-4-(difluoromethoxy)-1-((phenoxathiine-3-carbonyl)glycyl)pyrrolidine-2-carboxamide]	< 6.00
Cc1ccc(Oc2cccc(C(=O)NCC(=O)N3C[C@H](OC(F)F)C[C@H]3C(=O)NCc3cc4cnccc4[nH]3)c2F)cc1 [Compound 327, (2S,4R)-N-((1H-pyrrolo[3,2-c]pyridin-2-yl)methyl)-4-(difluoromethoxy)-1-((2-fluoro-3-(p-tolyloxy)benzoyl)glycyl) pyrrolidine-2-carboxamide]	> 7.00
C[C@@H](NC(=O)[C@@H]1C[C@@H](OC(F)F)CN1C(=O)CN1Cc2cc(Br)ccc2C1=O)c1cc2cnccc2[nH]1 [Compound 100, (2S,4R)-N-((R)-1-(1H-pyrrolo[3,2-c]pyridin-2-yl)ethyl)-1-(2-(5-bromo-1-oxoisoindolin-2-yl)acetyl)-4-(difluoromethoxy)pyrrolidine-2-carboxamide]	6.00 to 7.00
C[C@@H](NC(=O)[C@@H]1CC2(CCCC2)CN1C(=O)CNC(=O)c1ccc2c(c1)Oc1ccccc1S2)c1cc2cnccc2[nH]1 [Compound 131, (S)-N-((R)-1-(1H-pyrrolo[3,2-c]pyridin-2-yl)ethyl)-2-((phenoxathiine-3-carbonyl)glycyl)-2-azaspiro[4.4]nonane-3-carboxamide]	> 7.00
O=C(NCC(=O)N1C[C@H](OC(F)F)C[C@H]1C(=O)NCc1cc2cnccc2s1)c1cccc(Oc2ccc(F)cc2)c1 [Compound 254, (2S,4R)-4-(difluoromethoxy)-1-((3-(4-fluorophenoxy)benzoyl)glycyl)-N-(thieno[3,2-c]pyridin-2-ylmethyl)pyrrolidine-2-carboxamide]	> 7.00
Nc1nc(=O)oc2cc(CNC(=O)[C@@H]3C[C@@H](OC(F)F)CN3C(=O)CNC(=O)c3ccc4c(c3)Oc3ccccc3S4)ccc12 [Compound 248, (2S,4R)-N-((4-amino-2-oxo-2H-benzo[e][1,3]oxazin-7-yl)methyl)-4-(difluoromethoxy)-1-((phenoxathiine-3-carbonyl)glycyl)pyrrolidine-2-carboxamide]	< 6.00
